Laboratory results: the supplement of paper PMC10307832

How the values were obtained:
Test in all cases: relative viability (nuclei count vs DMSO), 5 days (fraction); higher = more cells survive
[1] = compound: C1COCCN1CC2=CC(=O)C(=CO2)OCCCCCSC3=C4C=CC(=CC4=NC=C3)C(F)(F)F [EHT 1864] + COc1cc2c(Oc3ccc(NC(=O)C4(C(=O)Nc5ccc(F)cc5)CC4)cc3F)ccnc2cc1OCCCN1CCOCC1 [Foretinib] (partner 0.25 µM)
Outline: (§1)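 Five library-drug doses in √10 steps were combined with a fixed anchor-drug dose, or a single drug was given alone, by pin tool to lung cancer cell lines in 1536-well plates the day after seeding. Nuclei were stained and counted after 5 days. Relative viability is the nuclei count in treated wells over that in vehicle wells, taken as the median of duplicate plates.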

[2] = compound: C1COCCN1CC2=CC(=O)C(=CO2)OCCCCCSC3=C4C=CC(=CC4=NC=C3)C(F)(F)F [EHT 1864] + Cc1nc(NC(=O)N2CCC[C@H]2C(N)=O)sc1-c1ccnc(C(C)(C)C(F)(F)F)c1 [Alpelisib] (partner 2 µM)
Outline: as §1

[3] = compound: C1COCCN1CC2=CC(=O)C(=CO2)OCCCCCSC3=C4C=CC(=CC4=NC=C3)C(F)(F)F [EHT 1864] + Nc1nc2[nH]cc(CCc3ccc(C(=O)N[C@@H](CCC(=O)O)C(=O)O)cc3)c2c(=O)[nH]1 [Pemetrexed] (partner 0.2 µM)
Outline: as §1

[4] = compound: C1COCCN1CC2=CC(=O)C(=CO2)OCCCCCSC3=C4C=CC(=CC4=NC=C3)C(F)(F)F [EHT 1864] + O=C(c1cc(Cc2n[nH]c(=O)c3ccccc23)ccc1F)N1CCN(C(=O)C2CC2)CC1 [Olaparib] (partner 8 µM)
Outline: as §1

| Cell Line | relative viability ([1]; first compound 0.04 µM) | relative viability ([1]; first compound 0.1265 µM) | relative viability ([1]; first compound 0.4 µM) | relative viability ([1]; first compound 1.265 µM) | relative viability ([1]; first compound 4 µM) | relative viability ([2]; first compound 0.04 µM) | relative viability ([2]; first compound 0.1265 µM) | relative viability ([2]; first compound 0.4 µM) | relative viability ([2]; first compound 1.265 µM) | relative viability ([2]; first compound 4 µM) | relative viability ([3]; first compound 0.04 µM) | relative viability ([3]; first compound 0.1265 µM) | relative viability ([3]; first compound 0.4 µM) | relative viability ([3]; first compound 1.265 µM) | relative viability ([3]; first compound 4 µM) | relative viability ([4]; first compound 0.04 µM) | relative viability ([4]; first compound 0.1265 µM) | relative viability ([4]; first compound 0.4 µM) | relative viability ([4]; first compound 1.265 µM) | relative viability ([4]; first compound 4 µM) |
| --- | --- | --- | --- | --- | --- | --- | --- | --- | --- | --- | --- | --- | --- | --- | --- | --- | --- | --- | --- | --- |
| H3255 | 0.79 | 0.818 | 0.903 | 0.844 | 0.978 | 0.652 | 0.516 | 0.675 | 0.718 | 0.711 | 0.532 | 0.603 | 0.576 | 0.572 | 0.561 | 0.56 | 0.537 | 0.573 | 0.55 | 0.569 |
| EPLC-272H | 0.684 | 0.575 | 0.694 | 0.887 | 0.875 | 1.08 | 0.933 | 0.977 | 1.07 | 0.999 | 0.317 | 0.332 | 0.317 | 0.365 | 0.356 | 0.741 | 0.672 | 0.788 | 0.642 | 0.611 |
| PC-3 [JPC-3] | 1.04 | 0.887 | 0.943 | 0.968 | 0.936 | 1.04 | 0.944 | 1.01 | 0.957 | 0.987 | 1.07 | 0.944 | 1.1 | 1.09 | 1.03 | 1.15 | 1.04 | 1.14 | 1.03 | 1.05 |
| NCI-H1944 | 0.893 |  | 0.882 | 0.89 | 0.701 | 0.828 |  | 0.805 | 0.803 | 0.984 | 0.669 |  | 0.64 | 0.58 | 0.693 | 0.376 |  | 0.392 | 0.416 | 0.367 |
| ChaGo-K-1 | 0.858 | 0.888 | 0.809 | 0.895 | 0.814 |  |  |  |  |  | 0.261 | 0.27 | 0.25 | 0.264 | 0.256 | 0.403 | 0.442 | 0.443 | 0.406 | 0.349 |
| NCI-H1703 | 0.309 |  | 0.299 | 0.339 | 0.382 | 0.323 | 0.319 | 0.399 | 0.373 | 0.366 |  |  |  |  |  | 0.396 |  | 0.461 | 0.277 | 0.291 |
| NCI-H727 | 0.905 | 0.875 | 0.724 | 0.95 | 0.928 | 0.623 | 0.593 | 0.524 |  | 0.567 |  |  |  |  |  | 1.07 | 0.75 | 0.459 | 0.529 | 0.524 |
| EBC-1 | 0.0988 | 0.119 | 0.116 | 0.115 | 0.0993 | 0.843 | 0.697 | 0.886 | 0.908 | 0.881 |  |  |  |  |  | 0.74 | 0.689 | 0.671 | 0.696 | 0.574 |
| NCI-H1299 | 1.05 | 1.09 | 1.06 | 1.04 | 1.07 | 0.973 | 0.974 | 0.983 | 1.05 | 1.08 |  |  |  |  |  | 0.96 | 0.939 | 0.964 | 0.913 | 0.893 |
| NCI-H1648 |  |  |  |  |  |  |  |  |  |  | 0.827 |  | 0.673 | 0.655 | 0.726 | 0.765 |  | 0.759 | 0.769 | 0.984 |
| NCI-H1650 |  |  | 1.18 | 0.896 | 0.92 |  |  |  |  |  | 0.384 | 0.327 | 0.331 | 0.36 | 0.358 | 0.722 | 0.63 | 0.776 | 0.845 | 0.682 |
| SW 900 | 0.524 |  | 0.862 | 0.89 | 0.687 |  |  |  |  |  | 0.477 |  | 0.463 | 0.473 | 0.446 | 0.73 |  | 0.907 | 0.857 | 0.803 |
| IA-LM | 1.21 |  | 1.09 | 1.03 | 0.901 | 0.875 | 0.419 | 0.799 | 0.677 | 0.639 |  |  |  |  |  | 0.926 | 0.842 | 0.81 | 0.62 | 0.618 |
| NCI-H1563 | 0.962 | 0.896 | 0.978 | 0.857 | 0.908 | 0.853 | 1.03 | 1.04 | 0.96 | 0.805 | 0.682 | 0.709 | 0.742 | 0.626 | 0.74 |  |  |  |  |  |
| HCC-44 |  |  |  |  |  | 0.801 | 0.703 | 0.751 | 0.695 | 0.857 | 0.603 | 0.594 | 0.618 | 0.674 | 0.674 | 1.04 | 0.896 | 1.01 | 0.92 | 1.02 |
| NCI-H2342 | 1.04 | 0.903 | 1.07 | 0.963 | 1.06 |  |  |  |  |  | 0.603 | 0.704 | 0.788 | 0.709 | 0.742 | 0.402 | 0.409 | 0.474 | 0.39 | 0.451 |
| ABC-1 | 1.22 | 1.06 | 1.03 | 0.954 | 0.834 | 0.665 | 1 | 1.05 | 0.92 | 1.07 |  |  |  |  |  | 1.24 | 0.695 | 0.861 | 0.629 | 0.762 |
| NCI-H522 |  |  |  |  |  |  |  |  |  |  | 1.29 | 0.75 | 0.977 | 1.16 | 1.18 | 0.719 | 0.66 | 0.63 | 0.666 | 0.734 |
| NCI-H1792 |  |  |  |  |  | 0.664 | 0.584 | 0.627 | 0.72 | 0.792 | 0.804 |  | 0.735 | 0.776 | 1.1 | 0.466 |  | 0.339 | 0.359 | 0.416 |
